# Test results: US20120190701A1, “RENIN INHIBITORS” (Merck Sharp & Dohme Corp., priority 2009, published 2012)
# Legend:
# [1] = target: T1, recombinant renin in human plasma (Homo sapiens, UniProt P00797); test: Inhibition of renin in human plasma (quenched fluorescent peptide); format: biochemical; conditions: human EDTA plasma with 1 nM recombinant renin added; 37° C., 1 hour
# T1 construct: purchased Proteos
# T1 sequence (P00797 67-406): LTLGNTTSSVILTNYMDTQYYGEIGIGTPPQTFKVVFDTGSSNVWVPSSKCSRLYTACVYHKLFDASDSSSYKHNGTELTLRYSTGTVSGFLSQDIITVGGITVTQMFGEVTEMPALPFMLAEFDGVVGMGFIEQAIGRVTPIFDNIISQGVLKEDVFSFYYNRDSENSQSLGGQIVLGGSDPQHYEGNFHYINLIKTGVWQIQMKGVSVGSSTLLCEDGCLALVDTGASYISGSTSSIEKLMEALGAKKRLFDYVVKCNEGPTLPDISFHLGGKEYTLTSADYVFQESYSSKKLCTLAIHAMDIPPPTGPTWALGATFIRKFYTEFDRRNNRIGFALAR
# Protocol: Human EDTA-collected plasma is rapidly thawed in warm water and centrifuged at 2900 g for 15 minutes at 4° C. The supernatant is collected and recombinant renin (Proteos) is added at a final concentration of 1 nM. […] The plate is incubated at 37° C. for 1 hour. […] Background fluorescence at t=0 is subtracted from the measurement at t=1 hour. Inhibitory activity of the compounds is expressed as IC50.
# Human recombinant renin = target: T2, Human recombinant renin (Homo sapiens, UniProt P00797); test: Inhibition of human recombinant renin (buffer assay, quenched fluorescent peptide); format: biochemical; conditions: buffer: 50 mM MOPS pH 7.4, 100 mM NaCl, 0.002% Tween 20; 37° C., 3 hours
# T2 construct: purchased Proteos
# T2 sequence (P00797 67-406): T1 sequence (P00797 67-406)
# Protocol: Background fluorescence at t=0 is subtracted from the measurement at t=3 hours. Inhibitory activity of the compounds is expressed as IC50.
IC50 [1] [nM],IC50 (Human recombinant renin) [nM],SMILES
0.6,0.1,"COCCc1cc(C)c(C)c(CN(C(=O)[C@H]2CNCC[C@@]23OCc2cc(F)c(F)cc23)C2CC2)c1 (relative stereo) [Example 45, (cis-1,3′)-N-Cyclopropyl-5,6-difluoro-N-[5-(2-methoxyethyl)-2,3-dimethylbenzyl]-3H-spiro[2-benzofuran-1,4′-piperidine]-3′-carboxamide]"
2.3,0.7,"COCCCc1cc(CN(C(=O)[C@H]2CNCC[C@@]23OCc2cc(F)c(F)cc23)C2CC2)c2ccccc2n1 (relative stereo) [Example 48, (cis-1,3′)-N-Cyclopropyl-5,6-difluoro-N-{[2-(3-methoxypropyl)-4-quinolinyl]methyl}-3H-spiro[2-benzofuran-1,4′-piperidine]-3′-carboxamide]"
1.3,0.1,COCCCc1cc(CCCOC)c(Cl)c(CN(C(=O)[C@H]2CNCC[C@@]23OCc2cc(F)c(F)cc23)C2CC2)c1 (relative stereo) [Example 53]
3.5,0.1,"COCCCc1cc(CN(C(=O)[C@H]2CNCC[C@@]23OCc2cc(F)c(F)cc23)C2CC2)c2ncccc2c1 (relative stereo) [Example 54, (cis-1,3′)-N-Cyclopropyl-5,6-difluoro-N-{[6-(3-methoxypropyl)-8-quinolinyl]methyl}-3H-spiro[2-benzofuran-1,4′-piperidine]-3′-carboxamide]"
4.5,1.2,"O=C([C@H]1CNCC[C@@]12OCc1cc(F)c(F)cc12)N(Cc1c[nH]c2cccc(F)c12)C1CC1 (relative stereo) [Example 56, (cis-1,3′)-N-cyclopropyl-5,6-difluoro-N-[(4-fluoro-1H-indol-3-yl)methyl]-3H-spiro[2-benzofuran-1,4′-piperidine]-3′-carboxamide]"
